From ChEMBL document CHEMBL1938267, “Capturing of the free cysteine residue in the ligand-binding site by affinity labeling of the ORL1 nociceptin receptor” (Bioorg Med Chem, 2011)
pEC50, pIC50: −log10 of the molar value. Calls of active or inactive are those of the source. No cut-off for these calls is given here. Peptide text beside a SMILES is read from it. * marks the point of attachment. Npys = O=[N+]([O-])c1cccnc1S*

What was measured:
Rattus norvegicus [1] = organism: Rattus norvegicus; experiment: Agonist activity at rat Galpha-fused ORL1 receptor at 10 uM by [35S]GTPgammaS binding assay relative to nociceptin; assay type: functional
COS-7 [2] = experiment: Displacement of [3H]nociceptin from rat Galpha-fused ORL1 receptor expressed in african green monkey COS7 cells preincubated with 100 uM N-ethylmaleimide for 90 mins measured after 90 mins; assay type: cell-based
[3] = Displacement of [3H]nociceptin from rat Galpha-fused ORL1 receptor expressed in african green monkey COS7 cells; assay type: cell-based; details: cos-7
Rattus norvegicus [4] = organism: Rattus norvegicus; experiment: Antagonist activity at rat Galpha-fused ORL1 receptor assessed as reduction of receptor agonist nociceptin-induced [35S]GTPgammaS binding at 10 uM; assay type: functional
[5] = Binding affinity to rat Galpha-fused ORL1 receptor expressed in african green monkey COS7 cells after 90 mins; assay type: cell-based; details: cos-7
COS-7 [6] = experiment: Binding affinity to rat Galpha-fused ORL1 receptor expressed in african green monkey COS7 cells at 5 uM after 90 mins; assay type: cell-based
COS-7 [7] = experiment: Displacement of [3H]nociceptin from rat Galpha-fused ORL1 receptor expressed in african green monkey COS7 cells preincubated with 5 uM Cys(Npys)-RYYRIK-NH2 for 90 mins measured after 90 mins; assay type: cell-based
COS-7 [8] = experiment: Ratio of NEM EC50 to compound EC50 for binding affinity to rat Galpha-fused ORL1 receptor expressed in african green monkey COS7 cells; assay type: cell-based
Rattus norvegicus [9] = organism: Rattus norvegicus; experiment: Agonist activity at rat Galpha-fused ORL1 receptor by [35S]GTPgammaS binding assay relative to nociceptin; assay type: functional
COS-7 [10] = experiment: Binding affinity to rat Galpha-fused ORL1 receptor expressed in african green monkey COS7 cells at 100 uM after 90 mins; assay type: cell-based

| SMILES | Activity (Rattus norvegicus [1]) [%] | Activity (COS-7 [2]) | pIC50 [3] | Activity (Rattus norvegicus [4]) | pEC50 [5] | Activity (COS-7 [6]) [%] | Activity (COS-7 [7]) | Ratio EC50 (COS-7 [8]) | Activity (Rattus norvegicus [9]) | Activity (COS-7 [10]) [%] |
| --- | --- | --- | --- | --- | --- | --- | --- | --- | --- | --- |
| CC[C@H](C)[C@H](NC(=O)[C@H](CCCN=C(N)N)NC(=O)[C@H](Cc1ccc(O)cc1)NC(=O)[C@H](Cc1ccc(O)cc1)NC(=O)[C@H](CCCN=C(N)N)NC(C)=O)C(=O)N[C@@H](CCCCN)C(N)=O | 60 | Active |  |  |  |  |  |  |  |  |
| CC[C@H](C)[C@H](NC(=O)[C@H](CCCNC(=N)N)NC(=O)[C@H](Cc1ccc(O)cc1)NC(=O)[C@H](Cc1ccc(O)cc1)NC(=O)[C@H](CCCNC(=N)N)NC(=O)[C@@H](N)CSSc1ncccc1[N+](=O)[O-])C(=O)N[C@@H](CCCCN)C(N)=O (H-C(Npys)RYYRIK-NH2) | 5 |  | 6.88 | Active | 5.72 | 60 | Active | 23 | inactive |  |
| CCN1C(=O)C=CC1=O [N-ETHYLMALEIMIDE] |  |  |  |  | 4.36 |  |  |  |  | 65 |
| CC(C)C[C@H](NC(=O)[C@H](CCCCN)NC(=O)[C@H](CCCNC(=N)N)NC(=O)[C@H](C)NC(=O)[C@H](CO)NC(=O)[C@H](CCCCN)NC(=O)[C@H](CCCNC(=N)N)NC(=O)[C@H](C)NC(=O)CNC(=O)[C@@H](NC(=O)[C@H](Cc1ccccc1)NC(=O)CNC(=O)CNC(=O)[C@@H](N)Cc1ccccc1)[C@@H](C)O)C(=O)N[C@@H](C)C(=O)N[C@@H](CC(N)=O)C(=O)N[C@@H](CCC(N)=O)C(=O)O [NOCICEPTIN] |  | Active | 9.28 |  |  |  |  |  |  |  |
